# In patent publication US9512425B2, “Inhibiting migration of cancer cells” (Cornell University, priority 2012, dated 2016):
# What was measured:
# [1] = tested on: metastatic prostate cancer cells PC3; experiment: Migration of PC3 cells with ectopic miR-708; format: cell-based, human; details: ectopic expression of miR-708 in PC3
# Nnat 3'-UTR = experiment: 3'-UTR dual luciferase assay; format: cell-based, human
# Protocol: (§1) The 3′-UTR of a gene of interest was amplified by PCR and cloned into a pmirGLO Dual-Luciferase miRNA Target Expression Vector (Promega). To express miRNA, synthetic premiRNA precursor for miR-708 and control scrambled miRNA were purchased from Applied Biosystems (Ambion). The miRNA precursor and pmirGLO Dual-Luciferase 3′-UTR vector were co-transfected into […] cells using the siPORT NeoFX Transfection Agent following manufacturer's instructions (Ambion). Cells were harvested and lysed at 48 hr post-transfection. The interaction between miR-708 and target 3′-UTR was measured by Dual-luciferase assay system (Promega).
# CD44 3'-UTR = experiment: 3'-UTR dual luciferase assay; format: cell-based; details: 293T cells, Renilla/Firefly ratio
# Protocol: as §1
# Gon4l 3'-UTR = experiment: 3'-UTR dual luciferase assay; format: cell-based; details: 293T cells, Renilla/Firefly ratio
# Protocol: as §1
# Ntrk2 3'-UTR = experiment: 3'-UTR dual luciferase assay; format: cell-based; details: 293T cells, Renilla/Firefly ratio
# Protocol: as §1
# NNAT protein = experiment: Western blot of NNAT; format: cell-based, human
# Protocol: (§2) Cells were homogenized in 1×RIPA lysis buffer (Millipore) containing protease inhibitors (Roche Applied Science) and 1× phosphatase inhibitor (Thermo Scientific). Samples were boiled in 1× NuPAGE LDS sampling buffer (Invitrogen), and loaded onto 4-20% gradient Tris-HCl gels (BioRad). Western blotting was performed using antibodies specific for NNAT (Cat#AB27266, Abcam), EPDR1 (Cat# SC81820, Santa Cruz), SSRP1 (Cat#SC56782, Santa Cruz), HOXB3 (Cat# SC17161, Santa Cruz), HNRNPK (Cat# SC28380, Santa Cruz), CNTFR, Phospho-p44/42 MAPK (Erk1/2, Cat #4370, Cell Signaling), p44/42 MAPK (Erk1/2, Cat #4695, Cell Signaling), VINCULIN (Cat#V9131, Sigma-Aldrich), and β-ACTIN (Sigma-Aldrich).
# Akt2 = Akt2 suppression in breast cancer cells (data not shown); format: cell-based
# intracellular Ca^2+ = experiment: Intracellular calcium measurements (Fura-2, ATP stimulation); format: cell-based, human
# Protocol: MDA-control, MDA-miR-708, and MDA-miR-708-Nnat-mut cells were grown on coverslips and used 2-3 days after plating. Cells were loaded with […] Fura-2 (Molecular Probes), a membrane-permeable Ca^2+-indicator dye, at 37° C. for 30 min. Cells were then washed and incubated in HEPES-buffered Na^+-Ringer's solution (140 mM NaCl, 5 mM KCl, 10 mM HEPES, 2 mM CaCl2, and 1 mM MgCl2, pH 7.4). Individual vials (50 mg) of the acetoxymethyl derivative of Fura-2 (Invitrogen/Molecular Probes) were stored dry at 0° C. and reconstituted in dimethyl sulfoxide at a concentration of 10 mM for each experiment. At the concentrations used, dimethyl sulfoxide had no effect on any preparation in these studies. The coverslip with the dye-loaded cells was attached to the bottom of a flow-through superfusion chamber and mounted on the stage of an inverted epifluorescence microscope (Nikon Eclipse TE-2000). The cells in the chamber were superfused and maintained at 37° C. as previously described (O'Connor and Silver, 2007). Cells were first visualized under transmitted light with a Nikon CF Fluor oil immersion objective (X40/1.3 numerical aperture) before the start of the fluorescence measurements. Images were obtained at 340 nm and 380 nm excitation and at 510 nm emission wavelengths. The ratio was determined from the images at 340 nm and 380 nm. The imaging workstation was controlled with the MetaFluor software package (Universal Imaging). Cells in the experimental field of view were analyzed singularly and independently from their neighbors. Results are expressed as means±SEM, where n refers to the total number of individually analyzed cells.
# The inventors hypothesized that miR-708-mediated targeting of Nnat may lead to impaired regulation of intracellular Ca^2+. This would explain the inhibitory effect on the migratory phenotype of metastatic tumor cells observed earlier (see, e.g., FIG. 1E). To test this hypothesis, MDA and MDA-miR-708 cells were loaded with the intracellular calcium indicator, Fura-2, and the 340/380 ratios were monitored in the absence and presence of exogenous ATP. ATP binds ATP receptors on the cell surface, resulting in the cleavage of PIP2 into IP3 and DAG. IP3 binds IP3 receptors on the endoplasmic reticulum membrane, and releases ionized calcium from the endoplasmic reticulum (Vandewalle et al., 1994), (Berridge et al., 2003; Swanson et al., 1998). Thus, ATP-stimulated calcium release from endoplasmic reticulum was used to evaluate the consequence of Nnat suppression by miR-708.
# p-FAK (S910) = experiment: Western blot and immunostaining of p-FAK; format: cell-based, human
# Protocol: as §2
# For immunofluorescence staining, cells were fixed overnight in paraformaldehyde before incubation with primary antibodies; mouse-monoclonal VINCULIN (Cat#V9131, Sigma-Aldrich, 1:400) and rabbit-polyclonal phosphorylated FAK (pS910, Cat #44596G, Invitrogen, 1:1000). Alexa Flour 568 or Alexa Fluor 647 anti-mouse IgG, and Alexa Fluor 647 anti-rabbit IgG (Invitrogen), were used for visualization. Following incubation with secondary antibodies the tissue sections were treated with Rhodamine Phalloidin (Cat# R415, Invitrogen). […] Images were analyzed using Axiovision 4.6 software (Carl Zeiss Inc.).
# cortical actin = experiment: Immunostaining for vinculin and F-actin (phalloidin); format: cell-based, human; details: MDA-miR-708 cells
# Protocol: For immunofluorescence staining, cells were fixed overnight in paraformaldehyde before incubation with primary antibodies; mouse-monoclonal VINCULIN (Cat#V9131, Sigma-Aldrich, 1:400) and rabbit-polyclonal phosphorylated FAK (pS910, Cat #44596G, Invitrogen, 1:1000). Alexa Flour 568 or Alexa Fluor 647 anti-mouse IgG, and Alexa Fluor 647 anti-rabbit IgG (Invitrogen), were used for visualization. Following incubation with secondary antibodies the tissue sections were treated with Rhodamine Phalloidin (Cat# R415, Invitrogen). Fluorescent images were obtained using a computerized Zeiss fluorescent microscope (Axiovert 200M), fitted with an apotome and an HRM camera. Images were analyzed using Axiovision 4.6 software (Carl Zeiss Inc.).
substance,measurement,setting,value
"miR-708: microRNA, mature sequence 5'-AAGGAGCUUACAAUCUAGCUGGG-3' (SEQ ID NO: 2); expressed from lentiviral vector or used as synthetic precursor",migration,[1],suppressed migration
same,repression of 3'-UTR luciferase reporter,"Nnat 3'-UTR; 293T cells, Renilla/Firefly ratio",significant repression
same,repression of wild type UTR (Nnat-UTR) reporter,"Nnat 3'-UTR; synthetic miR-708 vs scrambled miRNA, intact UTR",effectively suppressed
same,repression of mutant UTR (Nnat-UTR-mut) reporter,"Nnat 3'-UTR; synthetic miR-708 vs scrambled miRNA, mutated binding site",refractory to suppression
same,repression of 3'-UTR luciferase reporter,CD44 3'-UTR,significant repression
same,repression of 3'-UTR luciferase reporter,Gon4l 3'-UTR,significant repression
same,repression of 3'-UTR luciferase reporter,Ntrk2 3'-UTR,significant repression
same,expression of NNAT protein,"NNAT protein; MDA-708 vs MDA control cells, constitutive expression",significantly decreased
same,Nnat levels,NNAT protein; doxycycline-mediated conditional expression of miR-708,significant reduction
same,NNAT expression from Nnat cDNA,"NNAT protein; mutant 3'-UTR (Nnat-mut), synthetic miR-708",abolished miR-708-mediated suppression
same,NNAT expression from Nnat cDNA,"NNAT protein; wild type UTR, synthetic miR-708 vs scrambled",suppressed expression
same,Akt2 suppression,Akt2,not suppressed
same,regulation of intracellular Ca^2+ after ATP,intracellular Ca^2+; MDA cells expressing miR-708 vs MDA,attenuated regulation
same,"slope, initial rate of calcium regulation back to baseline (representative trace)","intracellular Ca^2+; MDA-miR-708 cells stimulated with ATP, control slope 0.72",0.3 ratio/min
same,pre-ATP stimulation (basal) ratio,"intracellular Ca^2+; MDA-miR-708 cells, mean±SEM",0.97±0.01
same,peak calcium response due to ATP stimulation (340/380 ratio),"intracellular Ca^2+; MDA-miR-708 cells, mean±SEM, n=107",1.77±0.06
same,initial rate of calcium regulation back to baseline,"intracellular Ca^2+; MDA-miR-708 cells, n=105, control 0.52±0.03",0.33±0.02
same,p-FAK levels following ATP-mediated Ca^2+ release,"p-FAK (S910); Western blot, MDA-miR-708 vs MDA cells",increased in MDA and not in MDA-miR-708 cells
same,p-FAK at vinculin+ focal adhesions,"p-FAK (S910); immunostaining, MDA-miR-708 cells",devoid of p-FAK
same,cortical actin phenotype,cortical actin,thick bands of cortical actin rings
